Experimental data from US20170081679A1, “METHODS OF IMPROVING NUCLEASE MEDIATED HOMOLOGOUS RECOMBINATION” (priority 2015, published 2017).
Entries after “also recorded” stand apart in the source; their conditions may differ. Values belong to the compound of their own block, whether it stands above or below them.

Key:
[1] = tested on: rabbit embryos (rbApoAI locus); assay: TALEN mediated knock-in of hApoAII to rbApoAI locus in embryos in vitro; format: cell-based; settings: RS-1 7.5 μM, control 7%
Source text: In another embodiment, we tested the effects of RS-1 in a TALEN mediated knock-in system. We designed and validated TALEN pairs targeting rbApoAI locus for knocking in the hApoAII coding sequence (FIG. 2B).

[2] = tested on: rbApoAI locus; assay: TALEN mediated hApoAII knock-in animal production (embryo transfer); format: in vivo, rabbit; settings: RS-1 treatment
Source text: In another embodiment, we tested RS-1 on the TALEN system in vivo. The same TALEN pairs and donor DNAs used in the in vitro work were used to product hApoAII knock-in animals.
Without RS-1 treatment, only one founder animal was produced out of 227 embryos transferred (FIG. 2A). The knock-in efficiency was 0.4% calculated by total knock-in founders/total embryos transferred or 6.3% calculated by total knock-in founders/total kits born.
After RS-1 treatment, we transferred a total of 145 embryos and obtained 17 kits. Seven out of 17 kits carried indel but no knock-in alleles (41%).

[3] = tested on: RLL-EGFP knock-in founder rabbits; assay: Germline transmission and allele distribution in embryos parented by RLL-EGFP founders; format: in vivo, rabbit
Source text: (§1) At the time of submitting this manuscript, five RLL-EGFP founders, three from the RS-1 treatment group, two from the non-treatment group, have reached sexual maturity. We bred these RLL-EGFP founder animals with WT counterparts.
To ultimately determine the frequencies of different types of alleles (i.e. WT, indel and knock-in) in the germ cells of knock-in animals, we used WT animals to breed with five RLL knock-in founders, 2 derived without RS-1 treatment and the other 3 with RS-1 treatment. Embryos were produced from founders of the RS-1 treated group (n=72) and the non-treated group (n=66), sequenced, and categorized as WT, indel, or knock-in based on the allele sequence (FIG. 2I). Similar percentage of WT alleles (17 vs. 18%) are found between these two groups. […] It appears that knock-in events take place at the expense of KO because the overall mutation rates (indel+knock-in) were similar between these two groups.

[4] = tested on: rabbit embryos (ROSA26 like locus, RLL); assay: Cas9 mediated RLL-EGFP knock-in in rabbit embryos in vitro; format: cell-based
Experimental: (§2) In one embodiment, we designed sgRNA targeting a ROSA26 like locus (RLL) in the rabbit genome (FIG. 2E). We next determined the effects of SCR7, an NHEJ inhibitor, and RS-1, an HDR enhancer on the knock-in success rates. Donor template DNAs were co-microinjected with Cas9 mRNA and sgRNA for RLL locus. After injection, the embryos were treated for 20 h in a serial concentration of SCR7: 0 μM (control), 20 μM, 40 μM, and 80 μM, or in RS-1 at 0 μM (control), 7.5 μM, and 15 μM.
(§3) In one embodiment, we microinjected 79 embryos with RAD51 mRNA, in addition to sgRNA, Cas9 mRNA and donor DNAs (FIG. 3A). RAD51 recombinase is a key player for homologous recombination and the repair of DNA DSBs (reference 13). Since it has been reported that RS-1 stimulates RAD51 (reference 12), we reasoned that including RAD51 mRNA in the microinjection mix would yield similar improvements on the knock-in efficiency as achieved with RS-1.

[5] = tested on: rabbit embryos (CFTR locus); assay: Cas9 mediated knock-in of CFTRdelF508 to rabbit CFTR locus in embryos in vitro; format: cell-based; settings: CFTRdelF508, Cas9, RS-1 7.5 μM; control 13%
Source text: In another embodiment, we tested the effects of RS-1 supplementation on Cas9 mediated knock-in of CFTRdelF508, the most frequent mutation type identified in human cystic fibrosis (CF) patients, to the rabbit CFTR locus (FIG. 4).

[6] = tested on: founder rabbits; assay: Health and reproduction of founder animals; format: in vivo
Source text: as §1
In sum, RS-1 is effective on improving knock-in rates in both the TALEN and the Cas9 mediated genome editing systems.

[7] = tested on: rabbit embryos; assay: Embryo development (blastocyst rate) after microinjection and treatment; format: cell-based; settings: 20 h; for blastocyst development: control 61.2%
Experimental: as §2, §3

[8] = tested on: rabbit RLL; assay: Cas9 mediated RLL-EGFP knock-in animal production (embryo transfer); format: in vivo; settings: RS-1 7.5 μM
Experimental: In one embodiment, we used RS-1 at 7.5 μM for the in vivo experiments. The sgRNA and donor DNA were used for knocking in EGFP to the rabbit RLL.
In the control group, we transferred a total of 373 embryos to synchronized recipient rabbits and obtained 43 kits. Twenty-nine of these 43 kits (67%) carried indel alleles but with on knock-in alleles. Three are proven as knock-in founders after PCR and sequencing (FIG. 2A). Of note, these three knock-in founders also carry indel alleles. The overall knock-in efficiency is 0.8% calculated by total knock-in founders/total embryos transferred, or 7.0% calculated by total knock-in founders/total kits born.
In the RS-1 treatment group (FIG. 2A), we transferred 146 embryos and obtained 38 kits, 18 of which carried indel but no knock-in alleles (47%). Similar to the in vitro results, the knock-in success rate was multifold higher than that in the control group. A total of 10 knock-in founders were produced, with the knock-in efficiency of 6.8% calculated by total knock-in founders/total embryos transferred, or 26.3% calculated by total knock-in founders/total kits born.

SMILES: O=C(Nc1ccc(Br)cc1)c1ccc(Br)c(S(=O)(=O)NCc2ccccc2)c1 [RS-1]
- percentage of embryos carrying knock-in alleles [1]: 15%
- kits carrying indel but no knock-in alleles ([2]; 7 of 17 kits): 41%
- knock-in efficiency, total knock-in founders/total embryos transferred ([2]; control 0.4%): 2.1%
- knock-in efficiency, total knock-in founders/total kits born ([2]; control 6.3%): 17.6%
- percentage of WT alleles ([3]; embryos (n=72) parented by founders of RS-1 treated group, other group 18%): 17%
- embryos carrying the knock-in allele (knock-in frequency at allele level) ([3]; embryos (n=72) parented by founders of RS-1 treatment group bred with WT, non-treated 14%): 33%
- germline transmitting founder animals ([3]; three animals of RS-1 treatment group, non-treatment 50%): 100%
- knock-in rate ([4]; RS-1 7.5 μM, 20 h, control 4.8%): 26.1%
- knock-in efficiency ([4]; RS-1 15 μM, 20 h, control 4.8%): 5.4%
- increase of knock-in efficiency ([4]; RS-1 at optimal concentration 7.5 μM, different loci (RLL, ApoAI, CFTR), in vitro): 2- to 5 fold
- percentage of embryos carrying knock-in alleles [5]: 30%
- abnormalities in founder animals ([6]; RLL-EGFP and hApoAII founders derived from RS-1 treatment): No abnormalities
- toxic effects on overall animal health and reproduction ([6]; RS-1 treatment of embryos): does not appear to have any toxic effects
- blastocyst development ([7]; RS-1 7.5 μM): 57.6%
- blastocyst development ([7]; RS-1 15 μM): 82.2%
- kits carrying indel but no knock-in alleles ([8]; 18 of 38 kits, control 67%): 47%
- knock-in efficiency, total knock-in founders/total embryos transferred ([8]; Cas9, control 0.8%): 6.8%
- knock-in efficiency, total knock-in founders/total kits born ([8]; Cas9, control 7.0%): 26.3%

- effect on embryo development ([7]; SCR7 20, 40, 80 μM, judged by blastocyst rates): no effects on embryo development
SMILES: O=c1[nH]c(=S)[nH]c(N=Cc2ccccc2)c1N=Cc1ccccc1 [SCR7]
- effect on overall knock-in efficiency ([4]; SCR7 20, 40, 80 μM for 20 h vs control): minimal effects; also recorded: no significant effects
- overall knock-in efficiency ([4]; SCR7 treatment groups 20-80 μM, 20 h, control 7.1%): 7.7-9.4%
- blastocyst rate ([7]; SCR7 treatment conditions (up to 80 μM)): 62-72%
